From patent US6395757B1, “Method for treating hot flashes in humans” (priority 1998, dated 2002)

Tests used:
[1] = transdermal, tamoxifen-treated women; cited from earlier work
[2] = Daily topical application of 0.5% glycopyrrolate roll-on solution in tamoxifen-treated breast cancer patients (Examples 2 and 3); format: in vivo, human
Text: A person treated with tamoxifen for breast cancer described 8 months of hot flashes and perspiration that awakened them from sleep.
A person treated with tamoxifen for breast cancer described hot flashes and perspiration beginning on their scalp, which interfered with their sleep.

[3] = Daily topical application of 0.5% glycopyrrolate lotion in a patient with menopausal hot flashes (Example 1); format: in vivo, human
Description: The patient is a person with a history of hot flashes and perspiration associated with menopause. They complained about profuse facial, scalp and anterior neck sweating that occurred randomly with the hot flashes. As a treatment, the patient was offered and consented to the application of 0.5% glycopyrrolate topical lotion, which they applied once daily to their forehead and face, sparing their mouth and eyes. The lotion consisted of 1.5 gm glycopyrrolate; 75 ml ethanol; 2.4 gm hydroxyethylcell; brought to a total volume of 300 ml with water and the pH adjusted to 2-4.5.

[4] = solution applied to the face of the patient; cited from earlier work
[5] = cited from earlier work
[6] = Example 2: person on tamoxifen, 0.5% roll-on solution daily to face
[7] = Example 3: person on tamoxifen, 0.5% roll-on solution daily to scalp and around hair line

Clc1cccc(Cl)c1N=C1NCCN1 [clonidine]
frequency and severity of hot flashes [1]: only a moderate effect

C[N+]1(C)CCC(OC(=O)C(O)(c2ccccc2)C2CCCC2)C1 (centres unmarked) [glycopyrrolate]
quality of sleep [2, 6]: improvement in the quality of their sleep
symptoms (hot flashes and perspiration) [2, 6]: greatly relieved their symptoms
sleep [2, 7]: improved sleep
symptoms (hot flashes and perspiration) [2, 7]: greatly relieved their symptoms
symptoms during continued use ([3]; daily topical roll-on lotion, subsequent 6 months): continued to alleviate their symptoms
perspiration associated with the hot flashes ([3]; person, menopause, 0.5% lotion once daily to forehead and face): complete resolution
hot flashes associated with menopause (patient report) ([3]; person, 0.5% lotion once daily to forehead and face): alleviated
gustatory sweating [4]: prevented the gustatory sweating

CC(=O)O[C@]1(C(C)=O)CC[C@H]2[C@@H]3C=C(C)C4=CC(=O)CC[C@]4(C)[C@H]3CC[C@@]21C [megestrol acetate]
frequency of hot flashes ([5]; low dose oral, men and women, short term study): reduce the frequency of hot flashes
side effect when taken long term ([5]; low dose, long term): chronic adrenal insufficiency can be a side effect
